This is an account of results in ChEMBL document CHEMBL3046954, “Identification of important structural features of thiazolo[4,5-d]pyrimidines required for potent antifungal activity” (2011).

Holding throughout (format): functional
Test [1] has as its system Aspergillus clavatus. The experiment in a line: Antifungal activity against Aspergillus clavatus MTCC 1323 by broth dilution method.
Test [2] has as its system Aspergillus niger. The experiment in a line: Antifungal activity against Aspergillus niger MTCC 282 by broth dilution method. For orientation: Broth dilution looks for growth in wells or tubes with falling amounts of substance.
Test [3] deals with Candida albicans. The experiment in a line: Antifungal activity against Candida albicans MTCC 227 by broth dilution method.

Converted amounts (≈) assume the structure as drawn.

Consider `COc1ccc(-n2c(=S)sc3c(=O)n(-c4ccc(Br)cc4)c(Nc4ccc(Br)cc4)nc32)cc1`, for which the MIC in test [1] turned out to be 0.2 µg/mL (≈ 0.324 µM); in test [2] it was 4 µg/mL (≈ 6.49 µM); in test [3], 0.8 µg/mL (≈ 1.3 µM).

For the compound `COc1ccc(Nc2nc3c(sc(=S)n3-c3ccccc3OC)c(=O)n2-c2ccc(OC)cc2)cc1`, the MIC in test [1] worked out at 0.8 µg/mL (≈ 1.54 µM); in test [2], 4 µg/mL (≈ 7.71 µM); in test [3], 16 µg/mL (≈ 30.9 µM).

Turning to `COc1ccc(-n2c(=S)sc3c(=O)n(-c4ccccc4OC)c(Nc4ccccc4OC)nc32)cc1`, the figures for the MIC in test [1], in test [2] and in test [3] were 25.6 µg/mL (≈ 49.4 µM), 0.4 µg/mL (≈ 0.771 µM) and 12.8 µg/mL (≈ 24.7 µM), respectively.

Turning to `COc1ccc(Nc2nc3c(sc(=S)n3-c3ccc(F)c(Cl)c3)c(=O)n2-c2ccc(OC)cc2)cc1`, the figures for the MIC in test [1], in test [2] and in test [3] were 0.2 µg/mL (≈ 0.37 µM), 4 µg/mL (≈ 7.39 µM) and 0.4 µg/mL (≈ 0.739 µM), respectively.

Regarding `Cc1cccc(C)c1Nc1nc2c(sc(=S)n2-c2ccccc2)c(=O)n1-c1c(C)cccc1C`, the MIC in test [1] came to 4 µg/mL (≈ 8.25 µM); in test [2], 25.6 µg/mL (≈ 52.8 µM); in test [3] it was 4 µg/mL (≈ 8.25 µM).

As for `OC(Cn1cncn1)(Cn1cncn1)c1ccc(F)cc1F` [FLUCONAZOLE], the MIC came out at 16 µg/mL (≈ 52.2 µM) in test [1], 16 µg/mL (≈ 52.2 µM) in test [2] and 0.5 µg/mL (≈ 1.63 µM) in test [3].

Take `O=c1c2sc(=S)n(-c3ccccc3)c2nc(Nc2ccccc2)n1-c1ccccc1`: the MIC was 25.6 µg/mL (≈ 59.7 µM) in test [1], 25.6 µg/mL (≈ 59.7 µM) in test [2] and 4 µg/mL (≈ 9.33 µM) in test [3].

Take NYSTATIN: the results for the MIC in test [1], in test [2] and in test [3] were 7 µg/mL, 7 µg/mL and 8 µg/mL, respectively.

Consider `COc1ccc(Nc2nc3c(sc(=S)n3-c3ccc(Cl)c(Cl)c3)c(=O)n2-c2ccc(OC)cc2)cc1`, for which the MIC in test [1] came to 0.8 µg/mL (≈ 1.44 µM); in test [2], 4 µg/mL (≈ 7.18 µM); in test [3], 0.8 µg/mL (≈ 1.44 µM).

Consider `COc1ccc(-n2c(=S)sc3c(=O)n(-c4ccc(F)cc4)c(Nc4ccc(F)cc4)nc32)cc1`, for which the figures for the MIC in test [1], in test [2] and in test [3] were 0.4 µg/mL (≈ 0.809 µM), 0.5 µg/mL (≈ 1.01 µM) and 0.4 µg/mL (≈ 0.809 µM), respectively.

On to `CCn1c(=S)sc2c(=O)n(-c3ccc(OC)cc3)c(Nc3ccc(OC)cc3)nc21`, for which the MIC in test [1] is 16 µg/mL (≈ 36.3 µM); in test [2], 0.8 µg/mL (≈ 1.82 µM); in test [3], 2 µg/mL (≈ 4.54 µM).

Consider `COc1ccc(Nc2nc3c(sc(=S)n3-c3ccc(OC)cc3)c(=O)n2-c2ccc(OC)cc2)cc1`, for which the MIC in test [1] was found to be 4 µg/mL (≈ 7.71 µM); in test [2], 0.5 µg/mL (≈ 0.964 µM); in test [3], 4 µg/mL (≈ 7.71 µM).

For the compound `COc1ccccc1-n1c(=S)sc2c(=O)n(-c3c(C)cccc3C)c(Nc3c(C)cccc3C)nc21`, the MIC in test [1], in test [2] and in test [3] was 4 µg/mL (≈ 7.77 µM) each time.

On to `COc1ccccc1Nc1nc2c(sc(=S)n2-c2ccccc2)c(=O)n1-c1ccccc1OC`, for which the MIC in test [1] turned out to be 12.8 µg/mL (≈ 26.2 µM); in test [2], 12.8 µg/mL (≈ 26.2 µM); in test [3], 4 µg/mL (≈ 8.19 µM).

For the compound `COc1ccc(Nc2nc3c(sc(=S)n3-c3ccccc3)c(=O)n2-c2ccc(OC)cc2)cc1`, the figures for the MIC in test [1], in test [2] and in test [3] were 0.2 µg/mL (≈ 0.409 µM), 0.8 µg/mL (≈ 1.64 µM) and 0.5 µg/mL (≈ 1.02 µM), respectively.

In the case of `COc1ccc(Nc2nc3c(sc(=S)n3-c3ccc(Br)cc3)c(=O)n2-c2ccc(OC)cc2)cc1`, the MIC came to 12.8 µg/mL (≈ 22.6 µM) in test [1], 0.4 µg/mL (≈ 0.705 µM) in test [2] and 4 µg/mL (≈ 7.05 µM) in test [3].

For `Cc1ccc(Nc2nc3c(sc(=S)n3-c3ccccc3)c(=O)n2-c2ccc(C)cc2)cc1`, the MIC in test [1] came to 0.8 µg/mL (≈ 1.75 µM); in test [2], 12.8 µg/mL (≈ 28 µM); in test [3], 0.8 µg/mL (≈ 1.75 µM).

Turning to `O=c1c2sc(=S)n(-c3ccc(Cl)c(Cl)c3)c2nc(Nc2ccc(Br)cc2)n1-c1ccc(Br)cc1`, the MIC in test [1] came out at 16 µg/mL (≈ 24.4 µM); in test [2], 4 µg/mL (≈ 6.1 µM); in test [3] it was 0.8 µg/mL (≈ 1.22 µM).

Consider `O=c1c2sc(=S)n(-c3ccc(F)c(Cl)c3)c2nc(Nc2ccc(Br)cc2)n1-c1ccc(Br)cc1`, for which the MIC in test [1], in test [2] and in test [3] was 4 µg/mL (≈ 6.26 µM) throughout.

One may read the MIC as the least concentration at which growth counts as inhibited.
